Test systems include PF-382; NALL-1; HPB-ALL; MOLT-14; KASUMI-9; MHH-CALL-4; LC4-1; JURKAT; DND-41; KASUMI-2; P12-ICHIKAWA; COG-LL-332h; REH; KARPAS-45; ALL-SIL; ALL-PO; NALM-6; COG-LL-394h; P30-OHKUBO; MN-60.
Common to all, as to assay: selective drug sensitivity score (sDSS, relative to normal bone marrow) (sDSS (score)); higher = more potent and effective on the cell line relative to normal bone marrow cells
What all share (conditions): 72 h
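Also: ALL cell lines in 384-well plates, five doses spanning 10,000-fold, each plate scaled between vehicle and 100 µmol/L benzalkonium chloride controls, sDSS an adapted area-under-curve metric.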

For the compound `CC1=C(/C=C/C(C)=C/C=C/C(C)=C/C(=O)O)C(C)(C)CCC1` [Tretinoin] (top concentration 10000 nM), the “selective drug sensitivity score” value is -2.4 with PF-382; -2.4 with NALL-1; -1.7 with HPB-ALL; -2.4 in the test with MOLT-14; 3.4 in the test with KASUMI-9; -2.4 with MHH-CALL-4. The “selective drug sensitivity score” value in the test on LC4-1, in the test with JURKAT, in the test with DND-41, in the test on KASUMI-2, in the test on P12-ICHIKAWA and in the test with COG-LL-332h was -2.4 each time. Besides, the “selective drug sensitivity score” value in the test on REH is -1.8; with KARPAS-45, -1.8; in the test on ALL-SIL, -2.4; with ALL-PO, -2.3; with NALM-6, -2.4; in the test with COG-LL-394h, -2.4. Further, the “selective drug sensitivity score” value in the test on P30-OHKUBO and in the test with MN-60 was -2.4 in each case.

Consider `COc1cc(OC)cc(N(CCNC(C)C)c2ccc3ncc(-c4cnn(C)c4)nc3c2)c1` [Erdafitinib] (top concentration 1000 nM), for which the “selective drug sensitivity score” value with PF-382 was -0.56; with NALL-1, 5.34; in the test on HPB-ALL it was 1.64; with MOLT-14 it was -0.56; in the test on KASUMI-9, 0.34; in the test on MHH-CALL-4 it was -0.46. For the same compound, the “selective drug sensitivity score” value is -0.56 in the test on LC4-1; -0.56 in the test with JURKAT; -0.26 with DND-41; -0.56 in the test with KASUMI-2; -0.56 in the test on P12-ICHIKAWA; -0.46 in the test on COG-LL-332h. For the same compound, the “selective drug sensitivity score” value with REH was 0.44; in the test on KARPAS-45, -0.06; with ALL-SIL, 2.74; in the test on ALL-PO, -0.46; with NALM-6 it was -0.56; in the test on COG-LL-394h it was -0.56. The results for the “selective drug sensitivity score” value in the test with P30-OHKUBO and in the test on MN-60 were 1.74 and -0.56, respectively.

As to `O=C(O)c1ccc(O)c2ncccc12` [IOX-1] (top concentration 100000 nM), the “selective drug sensitivity score” value is 4.44 in the test with PF-382; 2.24 in the test with NALL-1; 2.94 in the test on HPB-ALL; 5.64 in the test on MOLT-14; 2.94 with KASUMI-9; 2.24 with MHH-CALL-4. The “selective drug sensitivity score” value with LC4-1 came out at 3.24; in the test with JURKAT it was 3.54; with DND-41, 6.24; in the test on KASUMI-2, 2.04; in the test with P12-ICHIKAWA, 4.34; in the test with COG-LL-332h it was 7.54. Besides, the “selective drug sensitivity score” value in the test on REH was 2.54; in the test with KARPAS-45 it was 4.04; in the test with ALL-SIL, 6.24; in the test with ALL-PO, 3.74; in the test on NALM-6, 3.74; with COG-LL-394h it was -1.56. Also, the entries for the “selective drug sensitivity score” value in the test on P30-OHKUBO and in the test with MN-60 were 3.04 and 4.54, respectively.

These data come from the supplement of paper PMC8967900.
